Key:
[1] = test system: wildtype Wnt signaling cascade; assay: HEK293 TOP assay (Super TopFlash luciferase reporter, Wnt-3a stimulated); format: cell-based; details: Homo sapiens, HEK293, 16 h, HEK293 TOP reporter cells, Wnt3a at EC50, 16 hours
Summary of the method: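 Compound series (50 μM down to 15 nM, 3.16-fold) diluted from DMSO 50-fold into CAFTY buffer, pH 7.4, 2 mM Ca^2+, 0.01% BSA, applied to Wnt-3a-stimulated HEK293 TopFlash and FOP reporter lines in parallel. Cells seeded 10000/well 24 h before; luciferase signal measured.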

[2] = target: T1, TNKS1 (Homo sapiens, UniProt O95271); assay: TNKS1 Assay B (auto-parsylation, [3H]-NAD+ SPA); format: biochemical; details: 6 nM TNKS1, auto-parsylation, over night at room temperature
T1 construct: purchased BPS Bioscience, San Diego, USA 80579 (TNKS1 Histone Ribosylation Assay Kit)
T1 sequence (O95271 1-1327): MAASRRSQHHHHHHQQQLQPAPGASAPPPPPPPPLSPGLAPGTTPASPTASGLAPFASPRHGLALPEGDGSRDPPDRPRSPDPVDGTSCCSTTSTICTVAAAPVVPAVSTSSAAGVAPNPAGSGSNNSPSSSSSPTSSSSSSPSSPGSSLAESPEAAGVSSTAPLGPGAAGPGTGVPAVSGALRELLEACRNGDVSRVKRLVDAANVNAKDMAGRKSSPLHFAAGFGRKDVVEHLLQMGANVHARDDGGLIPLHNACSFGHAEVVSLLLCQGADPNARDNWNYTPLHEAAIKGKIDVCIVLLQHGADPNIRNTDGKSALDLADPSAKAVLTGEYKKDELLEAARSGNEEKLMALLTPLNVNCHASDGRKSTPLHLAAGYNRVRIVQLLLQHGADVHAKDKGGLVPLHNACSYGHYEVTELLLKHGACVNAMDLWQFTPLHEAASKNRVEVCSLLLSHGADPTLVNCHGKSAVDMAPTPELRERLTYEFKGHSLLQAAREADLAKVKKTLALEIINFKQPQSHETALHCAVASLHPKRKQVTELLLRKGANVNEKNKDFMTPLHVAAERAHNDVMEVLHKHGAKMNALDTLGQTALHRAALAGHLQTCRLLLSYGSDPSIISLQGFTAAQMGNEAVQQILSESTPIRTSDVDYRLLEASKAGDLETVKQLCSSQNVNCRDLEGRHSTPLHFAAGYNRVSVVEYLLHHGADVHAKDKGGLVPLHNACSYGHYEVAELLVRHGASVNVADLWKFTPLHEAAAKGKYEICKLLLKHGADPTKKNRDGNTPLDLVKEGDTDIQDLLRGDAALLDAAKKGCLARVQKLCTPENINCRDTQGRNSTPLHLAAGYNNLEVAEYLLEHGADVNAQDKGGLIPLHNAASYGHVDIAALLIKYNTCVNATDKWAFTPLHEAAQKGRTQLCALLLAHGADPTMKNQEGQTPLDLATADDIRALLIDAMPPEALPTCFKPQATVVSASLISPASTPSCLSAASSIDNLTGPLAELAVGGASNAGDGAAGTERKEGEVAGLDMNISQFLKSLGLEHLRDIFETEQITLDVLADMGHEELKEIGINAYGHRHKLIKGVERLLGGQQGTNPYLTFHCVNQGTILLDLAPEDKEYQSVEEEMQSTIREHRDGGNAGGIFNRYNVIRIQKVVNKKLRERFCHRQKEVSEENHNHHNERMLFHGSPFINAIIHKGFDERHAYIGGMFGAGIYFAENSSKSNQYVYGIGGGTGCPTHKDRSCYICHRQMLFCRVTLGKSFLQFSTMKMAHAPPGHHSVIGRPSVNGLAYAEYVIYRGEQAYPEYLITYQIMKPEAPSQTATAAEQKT

| IC50 [1] | IC50 [2] | Structure (SMILES) |
| --- | --- | --- |
| 24 nM | 68 nM | CNC(=O)c1nc[nH]c1C(=O)N[C@H]1CC[C@H](C(=O)Nc2c(F)cc(F)cc2Br)CC1 [Example 28, N^5-{trans-4-[(6-bromo-2,4-difluorophenyl)carbamoyl]cyclohexyl}-N^4-methyl-1H-imidazole-4,5-dicarboxamide] |
| 740 nM | 59 nM | Cc1cc(NC(=O)[C@H]2CC[C@H](NC(=O)c3[nH]cnc3C(=O)NCC3CCCO3)CC2)c(Cl)cc1F (stereo partly drawn) [Example 64, N^5-{trans-4-[(2-chloro-4-fluoro-5-methylphenyl)carbamoyl]cyclohexyl}-N^4-(tetrahydrofuran-2-ylmethyl)-1H-imidazole-4,5-dicarboxamide] |
| 250 nM | 310 nM | COC[C@H](C)NC(=O)c1nc[nH]c1C(=O)N[C@H]1CC[C@H](C(=O)Nc2c(F)cc(F)cc2Cl)CC1 [Example 66, N^5-{trans-4-[(2-chloro-4,6-difluorophenyl)carbamoyl]cyclohexyl}-N^4-[(2S)-1-methoxypropan-2-yl]-1H-imidazole-4,5-dicarboxamide] |
| 100 nM | 180 nM | O=C(NCC1CCCO1)c1nc[nH]c1C(=O)N[C@H]1CC[C@H](C(=O)Nc2c(F)cc(F)cc2Cl)CC1 (stereo in doubt) [Example 71, N^5-{trans-4-[(2-chloro-4,6-difluorophenyl)carbamoyl]cyclohexyl}-N^4-[(2R)-tetrahydrofuran-2-ylmethyl]-1H-imidazole-4,5-dicarboxamide] |
| 400 nM | 270 nM | COC(C)(C)CNC(=O)c1nc[nH]c1C(=O)N[C@H]1CC[C@H](C(=O)Nc2ccc(F)cc2Cl)CC1 [Example 73, N^5-{trans-4-[(2-chloro-4-fluorophenyl)carbamoyl]cyclohexyl}-N^4-(2-methoxy-2-methylpropyl)-1H-imidazole-4,5-dicarboxamide] |
| 54 nM | 57 nM | CNC(=O)c1nc[nH]c1C(=O)N[C@H]1CC[C@H](C(=O)Nc2cc(C)c(F)cc2Cl)CC1 [Example 63, N^5-{trans-4-[(2-chloro-4-fluoro-5-methylphenyl)carbamoyl]cyclohexyl}-N^4-methyl-1H-imidazole-4,5-dicarboxamide] |
| 130 nM | 49 nM | COC(C)(C)CNC(=O)c1nc[nH]c1C(=O)N[C@H]1CC[C@H](C(=O)Nc2cc(F)c(F)cc2Cl)CC1 [Example 85, N^5-{trans-4-[(2-chloro-4,5-difluorophenyl)carbamoyl]cyclohexyl}-N^4-(2-methoxy-2-methylpropyl)-1H-imidazole-4,5-dicarboxamide] |

The remaining lines, values behind:

| Structure (SMILES) | IC50 [1] | IC50 [2] |
| --- | --- | --- |
| CC(=O)c1cnc2c(C(=O)N[C@H]3CC[C@H](C(=O)Nc4ccc(F)cc4Cl)CC3)cnn2c1C [Example 46, 6-acetyl-N-{trans-4-[(2-chloro-4-fluorophenyl)carbamoyl]cyclohexyl}-7-methylpyrazolo[1,5-a]pyrimidine-3-carboxamide] | 97 nM | 65 nM |
| COCC(C)NC(=O)c1nc[nH]c1C(=O)N[C@H]1CC[C@@]2(CCN(c3cccc(Cl)c3)C2=O)CC1 (stereo partly drawn) [Example 285, N^5-[(trans)-2-(3-chlorophenyl)-1-oxo-2-azaspiro[4.5]dec-8-yl]-N^4-(1-methoxypropan-2-yl)-1H-imidazole-4,5-dicarboxamide] | 92 nM | 630 nM |
| CNC(=O)c1ncoc1C(=O)N[C@H]1CC[C@H](C(=O)Nc2ccc(F)cc2Cl)CC1 [Example 29, N^5-{trans-4-[(2-chloro-4-fluorophenyl)carbamoyl]cyclohexyl}-N^4-methyl-1,3-oxazole-4,5-dicarboxamide] | 930 nM | 650 nM |
| O=C(N[C@H]1CC[C@H](C(=O)Nc2ccc(F)cc2Cl)CC1)c1cnc2ccc(Cl)nn12 [Example 47, 6-chloro-N-{trans-4-[(2-chloro-4-fluorophenyl)carbamoyl]cyclohexyl}imidazo[1,2-b]pyridazine-3-carboxamide] | 390 nM | 530 nM |
| O=C(N[C@H]1CC[C@H](C(=O)Nc2ccc(F)cc2Cl)CC1)c1cnc2ccc(N3CCCC3)nn12 [Example 51, N-{trans-4-[(2-chloro-4-fluorophenyl)carbamoyl]cyclohexyl}-6-(pyrrolidin-1-yl)imidazo[1,2-b]pyridazine-3-carboxamide] | 290 nM | 83 nM |
| Cc1cnc2c(C(=O)N[C@H]3CC[C@H](C(=O)Nc4ccc(F)cc4Cl)CC3)cnn2c1 [Example 61, N-{trans-4-[(2-chloro-4-fluorophenyl)carbamoyl]cyclohexyl}-6-methylpyrazolo[1,5-a]pyrimidine-3-carboxamide] | 21 nM | 120 nM |
| O=C(N[C@H]1CC[C@@]2(CCN(c3cc(F)c(F)cc3Cl)C2=O)CC1)c1cnc2cccnn12 [Example 298, N-[(trans)-2-(2-chloro-4,5-difluorophenyl)-1-oxo-2-azaspiro[4.5]dec-8-yl]imidazo[1,2-b]pyridazine-3-carboxamide] | 4.9 nM | 6.1 nM |
| Cc1cc(N2CCC[C@]3(CC[C@@H](NC(=O)c4cnn5cccnc45)CC3)C2=O)c(Cl)cc1F [Example 300, N-[(trans)-2-(2-chloro-4-fluoro-5-methylphenyl)-1-oxo-2-azaspiro[5.5]undec-9-yl]pyrazolo[1,5-a]pyrimidine-3-carboxamide] | 18 nM | 94 nM |
| CNC(=O)c1[nH]cnc1C(=O)N[C@@H]1CC[C@@H](C(=O)Nc2ccc(F)cc2Cl)C[C@H]1OC (racemic) [Example 35, N^4-{(1α,2β,4β)-4-[(2-chloro-4-fluorophenyl)carbamoyl]-2-methoxycyclohexyl}-N^5-methyl-1H-imidazole-4,5-dicarboxamide] | 17000 nM | > 10000 nM |
| CNC(=O)c1[nH]cnc1C(=O)N[C@@H]1CC[C@@H](C(=O)Nc2ccc(F)cc2Cl)C[C@@H]1F (racemic) [Example 31, N^4-{(1α,2α,4β)-4-[(2-chloro-4-fluorophenyl)carbamoyl]-2-fluorocyclohexyl}-N^5-methyl-1H-imidazole-4,5-dicarboxamide] | 250 nM | 150 nM |
| O=C(N[C@H]1CC[C@H](C(=O)Nc2ccc(F)cc2Cl)CC1)c1[nH]cnc1C(=O)N1CC(F)(F)C1 [Example 72, N-{trans-4-[(2-chloro-4-fluorophenyl)carbamoyl]cyclohexyl}-4-[(3,3-difluoroazetidin-1-yl)carbonyl]-1H-imidazole-5-carboxamide] | 140 nM | 55 nM |
| O=C(N[C@H]1CC[C@H](C(=O)Nc2ccc(F)cc2Cl)CC1)c1cnn2cccnc12 [Example 43, N-{trans-4-[(2-chloro-4-fluorophenyl)carbamoyl]cyclohexyl}pyrazolo[1,5-a]pyrimidine-3-carboxamide] | 130 nM | 81 nM |
| COC[C@@H](C)NC(=O)c1nc[nH]c1C(=O)N[C@H]1CC[C@H](C(=O)Nc2ccc(F)cc2Cl)CC1 [Example 84, N^5-{trans-4-[(2-chloro-4-fluorophenyl)carbamoyl]cyclohexyl}-N^4-[(2R)-1-methoxypropan-2-yl]-1H-imidazole-4,5-dicarboxamide] | 230 nM | 370 nM |
| O=C(N[C@H]1CC[C@H](C(=O)Nc2ccc(F)cc2Cl)CC1)c1cnc2cccnn12 [Example 45, N-{trans-4-[(2-chloro-4-fluorophenyl)carbamoyl]cyclohexyl}imidazo[1,2-b]pyridazine-3-carboxamide] | 160 nM | 310 nM |

— patent US20180148418A1, “AMIDO-SUBSTITUTED CYCLOHEXANE DERIVATIVES” (Bayer Pharma Aktiengesellschaft, priority 2015, published 2018)
